Data reported in patent US20240293422A1, “SHP2 AND CDK4/6 INHIBITORS COMBINATION THERAPIES FOR THE TREATMENT OF CANCER” (Erasca, Inc., priority 2021, published 2024).

Key:
[1] = system: KRAS^G12S mutated A549 cells; test: Clonogenic assay (colony formation), A549; assay type: cell-based, human; settings: for colony formation (in words): A549, 2000 cells per well, 14 days, crystal violet, various concentrations; for reduction of colony formation: A549, quantification FIG. 1B, each agent alone or combination, concentrations not given
Description: (§1) Cells and Reagents: The cell lines were obtained from ATCC (SW620 #CCL-227, A549 #CCL-185 and NCI-H441 #HTB-174). The cell lines, LS180 (ECACC #87021202) and Gp2D (ECACC #95090714). The cell line, CAL 27 was cultured in DMEM (Gibco #). SCC-4, SCC-15, SCC-25, SCC-9 cell lines were cultured in a 1:1 mixture of DMEM and Ham's F12 medium containing 1.2 g/L sodium bicarbonate, 2.5 mM L-glutamine, 15 mM HEPES and 0.5 mM sodium pyruvate supplemented with 400 ng/ml hydrocortisone, 90%; fetal bovine serum, 10% (Hyclone #SH-30071.03) and Penicillin/Streptomycin (Thermo Fisher #15070-063). The cells were maintained at 37° C./5% CO2.
(§2) Clonogenic assay: The cells were plated onto 6-well plates in 2 ml cell culture medium. The cells were incubated overnight and treated with various concentration of the compound of Formula I and Palbociclib. After 7 days incubation, the medium was replaced with fresh medium, cells were treated again with same concentration of the compound of Formula I and Palbociclib and incubated for additional 7 days. After 14 days of total incubation, the cells were washed with PBS twice and fixed 30 mins with 4% formaldehyde. The cells were washed twice with PBS and incubated with 0.1% crystal violet for 60 mins. After the crystal violet staining, the cells were washed five times with water and let it dry at room temperature. After the plates were dried, the crystal staining was de-stained with 1 ml of 10% acetic acid and absorbance was measured at 560 nm.
(§3) Cell lines from each of KRAS^G12D (LS513 and Gp2D), KRAS^G12S (A549) and KRAS^G12V (NCI-H441 and SW620) mutations were split onto 6-well plates in 2 ml cell culture medium. The cells were incubated overnight and treated with various concentration of the compound of Formula I and Palbociclib and assayed using the Clonogenic Assay protocol described above.
The A549 cells were split onto 6 well plates (2000 cells per well). After overnight incubation, the cells were treated with the compound of Formula I alone and treated in combination with palbociclib and colony formation was determined as mentioned in method. […] (FIG. 1A).

[2] = system: KRAS^G12V mutated NCI-H441 cells; test: Clonogenic assay (colony formation), NCI-H441; assay type: cell-based, human; settings: for colony formation (in words): NCI-H441, 8000 cells per well, 14 days, crystal violet, various concentrations
Description: as §1, §2, §3
(§4) The NCI-H441 and SW620 cells were split onto 6 well plates (8000 and 4000 calls per well respectively). After overnight incubation, the cells were treated with the compound of Formula I alone and treated in combination with palbociclib and colony formation was determined as mentioned in method. […] (FIGS. 2A&3A). […] There was a pronounced inhibition of colony formation (about 80%) observed with combination of the compound of Formula I and palbociclib treatment. […] There was a pronounced inhibition of colony formation (about 60%) observed with combination of the compound of Formula I and palbociclib treatment.

[3] = system: KRAS^G12V mutated SW620 cells; test: Clonogenic assay (colony formation), SW620; assay type: cell-based; settings: for colony formation (in words): SW620, 4000 cells per well, 14 days, crystal violet, various concentrations
Description: as §1, §2, §3, §4

[4] = system: KRAS^G12D mutated LS-180 cells; test: Clonogenic assay (colony formation), LS-180; assay type: cell-based; settings: for colony formation (in words): LS-180, 4000 cells per well, 14 days, crystal violet, various concentrations
Description: as §1, §2, §3
(§5) The LS-180 and Gp2D cells were split onto 6 well plates (4000 and 8000 calls per well respectively). After overnight incubation, the cells were treated with the compound of Formula I alone and treated in combination with palbociclib and colony formation was determined as mentioned in method. […] (FIGS. 4A&5A). […] There was a pronounced inhibition of colony formation (about 50%) observed with combination of the compound of Formula I and palbocilib treatment. […] There was a pronounced inhibition of colony formation (about 50%) observed with combination of the compound of Formula I and palbocilib treatment.

[5] = system: KRAS^G12D mutated Gp2D cells; test: Clonogenic assay (colony formation), Gp2D; assay type: cell-based, human; settings: for colony formation (in words): 8000 cells per well, 14 days, crystal violet, various concentrations
Description: as §1, §2, §3, §5

[6] = system: KRAS^G12S mutant NSCLC xenograft model A549; test: Antitumor efficacy in A549 xenograft mouse model; assay type: in vivo, Female Balb/c nude mice; settings: 28 days
Description: Reagents: The vehicle/control article, 100 mM acetic acid in deionized water, with pH adjustment to 4.8-5.0, was prepared and stored under ambient conditions throughout the 28-day administration in mice. The test article compound of Formula I was freshly prepared in vehicle of 100 mM acetic buffer weekly and stored under ambient conditions. The combination agent palbociclib was freshly prepared in vehicle of 50 mM Sodium Lactate Buffer, pH 3.8-4.0 weekly and stored at 2-8° C.
Animals: Female Balb/c nude mice were purchased from the Beijing Vital River Laboratory Animal Technology Co., Ltd. Mice were hosted at special pathogen-free (SPF) environment of vivarium facility and acclimated to their new environment for at least 3 days prior to initiation of any experiments. Mice were between 6-8 weeks of age at the time of implantation.
Preparation of xenograft model: A549 was a human lung cancer cell line that harbored a KRASG12S mutation. The A549 cell line was purchased from the American Type Culture Collection (ATCC® CCL-185™). A549 cells were cultured in medium containing RPMI1640 plus 10% Fetal Bovine Serum (FBS) at 37° C. in an atmosphere of 5% CO2 in air. The medium was renewed every 2 to 3 days and tumor cells were routinely sub-cultured at a confluence of 80-90% by trypsin-EDTA. The cells growing in an exponential growth phase were harvested and counted for inoculation.
A549 tumor cells were implanted into mice subcutaneously. Briefly, 200 μL cell suspensions containing 5×10^6 tumor cells mixed with 50% Matrigel were subcutaneously implanted into the right flank of mouse using a syringe. Animal health and tumor growth were monitored daily. Tumor volume was measured twice a week by caliper when tumors were palpable and measurable. When tumor volumes reached a mean of 200 mm^3 (range of 152-259 mm^3), tumor-bearing mice were randomized into different groups with 8 mice in each group. The randomization date was denoted as treatment day 0.
Treatment: Treatment started on the day of randomization. The treatment start day was denoted as treatment day 0. Mice were dosed by oral administration of vehicle control solution, the compound of Formula I at 10 mg/kg/dose BID, the compound of Formula I at 30 mg/kg QD, or palbociclib at 25 mg/kg QD monotherapy treatment groups. Two additional groups received combination treatment of the compound of Formula I and palbociclib, one dosing the compound of Formula I at 10 mg/kg/dose BID with palbociclib at 25 mg/kg QD and the other dosing the compound of Formula I at 30 mg/kg QD with palbociclib at 25 mg/kg QD. The dosing volume for each compound was 5 mL/kg and interval of BID regimen was 8 hours. Palbociclib was dosed at one-hour post the compound of Formula I QD or first BID dose in combination groups. […] Per this practice, mice in the compound of Formula I at 10 mg/kg/dose BID monotherapy group and in the compound of Formula I at 10 mg/kg/dose BID with palbociclib at 25 mg/kg QD combination group were supplied with DietGel food starting on treatment day 20 and continuing through the remaining study period. Mice in the compound of Formula I at 30 mg/kg QD monotherapy group were supplied with DietGel food starting on treatment day 17 and continuing through the remaining study period. The study was terminated on treatment day 28 as being defined in the study protocol.
Measurements and calculations: Conditions of animal health and clinical signs of toxicity were monitored daily. Subcutaneous tumor volumes and mouse body weights were measured twice a week by caliper and balance, respectively. Tumor volume, percent of tumor growth inhibition (% TGI), percent of tumor regression, percent of body weight change (% BWC), and treatment related body weight loss (% trBWL) were calculated based on following formulas: […]
Percent of tumor growth inhibition (% TGI) • vii.
[formula] • viii. TVTi was the group mean tumor volume (TV) of treatment group at last treatment day • ix. […]

[7] = Body weight change and tolerability in A549 xenograft study; assay type: in vivo, Female Balb/c nude mice; settings: for treatment related body weight loss (trBWL) category: palbociclib 25 mg/kg QD, Formula I 10 mg/kg BID and 30 mg/kg QD, both combinations with palbociclib 25 mg/kg QD
Description: Treatment: Treatment started on the day of randomization. The treatment start day was denoted as treatment day 0. Mice were dosed by oral administration of vehicle control solution, the compound of Formula I at 10 mg/kg/dose BID, the compound of Formula I at 30 mg/kg QD, or palbociclib at 25 mg/kg QD monotherapy treatment groups. Two additional groups received combination treatment of the compound of Formula I and palbociclib, one dosing the compound of Formula I at 10 mg/kg/dose BID with palbociclib at 25 mg/kg QD and the other dosing the compound of Formula I at 30 mg/kg QD with palbociclib at 25 mg/kg QD. The dosing volume for each compound was 5 mL/kg and interval of BID regimen was 8 hours. Palbociclib was dosed at one-hour post the compound of Formula I QD or first BID dose in combination groups. […] The study was terminated on treatment day 28 as being defined in the study protocol.
Measurements and calculations: Conditions of animal health and clinical signs of toxicity were monitored daily. Subcutaneous tumor volumes and mouse body weights were measured twice a week by caliper and balance, respectively. Tumor volume, percent of tumor growth inhibition (% TGI), percent of tumor regression, percent of body weight change (% BWC), and treatment related body weight loss (% trBWL) were calculated based on following formulas:
[formula] [formula] [formula] • i. BWdx was body weight group mean at treatment day x • ii. BWd0 was body weight group mean at treatment day 0
Percentage of treatment related body weight loss at treatment day x (% trBWLdx) was calculated based on the following: • iii. If % BWC in the treatment group was positive at treatment day x: % trBWLdx=0% • iv. If % BWC was negative in both the control and treatment groups at treatment day • x:
Treatment related body weight loss (trBWL) was categorized based on the following criteria: x≤5% was no loss, 5%<x≤10% was mild loss, 10%<x≤20% was moderate loss and x>20% was severe loss.

## CC(=O)c1c(C)c2cnc(Nc3ccc(N4CCNCC4)cn3)nc2n(C2CCCC2)c1=O [Palbociclib, reference compound]
[1]
  colony formation (in words): inhibition of colony formation dose dependently
  reduction of colony formation: about 10%
[2]; Homo sapiens, NCI-H441, palbociclib 100 nM alone, FIG. 2B
  inhibition at 0.1 µM: ~60%
[2]
  colony formation (in words): inhibition of colony formation dose dependently
[3]; Homo sapiens, SW-620, SW620, palbociclib 100 nM alone, FIG. 3B
  inhibition at 0.1 µM: ~40%
[3]
  colony formation (in words): inhibition of colony formation dose dependently
[4]; Homo sapiens, LS180, LS-180, palbociclib 250 nM alone, FIG. 4B
  inhibition at 0.25 µM: ~40%
[4]
  colony formation (in words): inhibition of colony formation dose dependently
[5]
  colony formation (in words): inhibition of colony formation dose dependently
[5]; Homo sapiens, palbociclib 250 nM alone, FIG. 5B
  inhibition at 0.25 µM: ~40%
[6]; palbociclib 25 mg/kg QD oral
  % TGI (last treatment day): 15%
  % Tumor regression (last treatment day): 0%
[7]; 28 days oral, palbociclib 25 mg/kg QD monotherapy
  maximum trBWL: 400
[7]; 28 days oral
  treatment related body weight loss (trBWL) category: no trBWL

## COCOC[C@H]1C[C@H]2COc3c(Sc4cnc(N5CCC6(CC5)CO[C@@H](C)[C@H]6N)c(CO)n4)ccnc3N2C1 [compound of Formula I, (3-((3S,4S)-4-amino-3-methyl-2-oxa-8-azaspiro[4.5]decan-8-yl)-6-(((6aS,8S)-8-((methoxymethoxy)methyl)-6a,7,8,9-tetrahydro-6H-pyrido[3,2-b]pyrrolo[1,2-d] [1,4]oxazin-4-yl)thio)pyrazin-2-yl)methanol]
[1]
  colony formation (in words): inhibited the colony formation minimally
  reduction of colony formation: about 10%
[2]
  colony formation (in words): inhibited the colony formation minimally
[2]; NCI-H441, FIG. 2B
  colony formation on increasing the concentration of Formula I: robust inhibition of colony formation
[2]; NCI-H441, Formula I 250 nM alone, FIG. 2B
  colony formation (treatment showed about x% of colony formation): about 40%
[3]
  colony formation (in words): inhibited the colony formation minimally
[3]; SW620, Formula I 250 nM alone, FIG. 3B
  colony formation (treatment showed about x% of colony formation): about 10%
[3]; SW620, single agent and combination, FIG. 3B
  colony formation on increasing the concentration of Formula I: robust inhibition of colony formation
[4]
  colony formation (in words): inhibited the colony formation minimally
[4]; LS-180, Formula I 250 nM alone, FIG. 4B
  colony formation (treatment showed about x% of colony formation): about 10%
[5]
  colony formation (in words): inhibited the colony formation minimally
[5]; Formula I 250 nM alone, FIG. 5B
  colony formation (treatment showed about x% of colony formation): about 20%
[6]; Formula I 10 mg/kg BID oral
  % TGI (last treatment day): 52%
  % Tumor regression (last treatment day): 0%
[6]; Formula I 30 mg/kg QD oral
  % TGI (last treatment day): 70%
  % Tumor regression (last treatment day): 0%
[7]; 28-day treatment period, both Formula I monotherapy groups and both combination groups
  clinical signs of toxicity or mortality: no clinical signs of toxicity or mortality were observed
[7]; 28 days oral
  treatment related body weight loss (trBWL) category: mild trBWL
